Measurements published in PubChem BioAssay AID1919006 (Molecular Pharmacology Branch, DTP, NCI, 2023).

System: 885512-296-R-J2-PDC complex spheroid growth, % test/control
Test: Anticancer human tumor 885512-296-R-J2-PDC patient-derived breast carcinoma cell line growth inhibition [AhR]
Conditions: for IC50: curve of first compound; for viability, T/C: stronger effect = lower value; active = viability on the fitted dose curve at most 10% of control; inactive = the rest
Excerpt: Multicellular complex tumor spheroid response to aryl hydrocarbon receptor antagonists in combination with a variety of drugs and investigational agents in selected tumor cell lines
The current study was undertaken to assess response to aryl hydrocarbon receptor antagonists in combination with standard-of-care drugs and investigational agents in solid tumor complex spheroid models. Complex spheroids include a stromal component modeled by human endothelial cells (HUVEC) and fibroblasts modeled by human mesenchymal stem cells (MSCs). The concentration ranges selected for each drug and investigational agent were based upon clinically achievable concentrations if the clinical Cmax of the agent was known.
Compounds. The drugs and investigational agents: BAY 2416964 (NSC825713), GNF351 (NSC835774), CH-223191 (NSC835775), CPI-455 (NSC825282), aza-TdCyd (NSC777586), decitabine (NSC127716), belinostat (NSC758774), entinostat (NSC756642), pevonedistat (NSC761192), tazemetostat (NSC777109), talazoparib (NSC765396), olaparib (NSC753686), selinexor (NSC780203), nedisertib (M3814, NSC802822), bortezomib (NSC756655), venetoclax (NSC766270), doxorubicin (NSC123127), elimusertib (BAY189344, NSC800525), ceralasertib (AZD6738, NSC777638), TAK-243 (NSC785004), alisertib (NSC759677), etoposide (NSC141540), topotecan (NSC609699), eribulin (NSC707389), gemcitabine (NSC613327), carboplatin (NSC241240), cisplatin (NSC119875), and SN-38 (NSC673596) were obtained from the National Cancer Institute (NCI) Developmental Therapeutics Program Chemical Repository (32). The FDA-approved anticancer drug set is available from the Developmental Therapeutics Program at https://dtp.cancer.gov/organization/dscb/obtaining/available plates.htm. […] The stock solutions were prepared in dimethyl sulfoxide (DMSO, Sigma-Aldrich, St. Louis, MO, cat. D2650), except for the platinum compounds which were prepared in saline (Quality Biological, Gaithersburg, MD, cat. 114-055-101), at 800-fold the tested concentration and stored at -70 degrees C prior to their use. All drugs and investigational agents were tested over a range starting from a high concentration at or near the clinical Cmax and decreasing in half-log increments. If the clinical Cmax for an agent had not been determined, the highest concentration tested was 10 microM (Table 1).
Cell Culture. All cells were maintained in an incubator at 37 degrees C and 5% CO2 with 95% humidity. The PDC lines were cultured according to standard operating procedures established by the NCI PDMR (https://pdmr.cancer.gov). Briefly, all PDCs were thawed and cultured in Matrigel-coated flasks prepared with a working solution of 1X Ham's F-12 nutrient mix, without supplementation (Invitrogen, Waltham, MA, cat. 11765054), 100 U/mL penicillin-streptomycin (Invitrogen, cat. 15140122), and 2.5% Matrigel (Corning Inc., Corning, NY, cat. 354248) for the first three passages. All PDCs were cultured in complete DMEM/F-12 media containing advanced DMEM/F-12 (Invitrogen, cat. 12634028), 4.9% defined fetal bovine serum, heat inactivated (HyClone Laboratories Inc., Logan, UT, cat. SH30070.03HI), 389 ng/mL hydrocortisone (Sigma-Aldrich, cat. H4001), 9.7 ng/mL human EGF recombinant protein (Invitrogen, cat. PHG0313), 23.4 microg/mL adenine (Sigma-Aldrich, cat. A2786), 97.3 U/mL penicillin-streptomycin (Invitrogen, cat. 15140122), 1.9 mM L-glutamine (Invitrogen, cat. 25030081), and 9.7 microM Y-27632 dihydrochloride (Tocris Bioscience, Bristol, United Kingdom, cat. 1254). The PDCs were cultured in complete DMEM/F12 media without 10 microM Y-27632 dihydrochloride for at least two passages prior to the screen. The established cell lines NCI-H1341 and […] were cultured in DMEM/F-12, HEPES (Invitrogen, cat. 11330032), 5% defined fetal bovine serum (HyClone Laboratories Inc., cat. SH30070.03), ITS premix universal culture supplement [insulin (5 microg/mL), transferrin (5 microg/mL), and selenious acid (5 ng/mL)] […]
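Note: spheroids exposed to compounds for seven days.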

COc1ccc([C@@H](O)c2cc(-c3ncnc4cc(N5CCOCC5)ccc34)c(F)cc2Cl)nn1 + Cc1cncc(-c2nc(NCCc3c[nH]c4ccccc34)c3ncn(C(C)C)c3n2)c1
< 0.0316 µM: IC50 (second compound 10 µM)
6.1 µM: IC50 (second compound 1 µM)
> 10 µM: IC50 (second compound 0.1 µM)
active: viability, T/C (second compound 10 µM, first compound 10 µM) 9.01%
0.933 µM: IC50 (second compound 3.16 µM)
inactive: viability, T/C (second compound 0.1 µM, first compound 0.0316 µM) 101% | viability, T/C (second compound 0.1 µM, first compound 0.1 µM) 93.2% | viability, T/C (second compound 0.1 µM, first compound 0.316 µM) 87.4% | viability, T/C (second compound 0.1 µM, first compound 1 µM) 87.3% | viability, T/C (second compound 0.1 µM, first compound 3.16 µM) 63.1% | viability, T/C (second compound 0.1 µM, first compound 10 µM) 51.7% | viability, T/C (second compound 0.316 µM, first compound 0.0316 µM) 104% | viability, T/C (second compound 0.316 µM, first compound 0.1 µM) 89.7% | viability, T/C (second compound 0.316 µM, first compound 0.316 µM) 81.9% | viability, T/C (second compound 0.316 µM, first compound 1 µM) 86.5% | viability, T/C (second compound 0.316 µM, first compound 3.16 µM) 65.9% | viability, T/C (second compound 0.316 µM, first compound 10 µM) 45.1% | viability, T/C (second compound 1 µM, first compound 0.0316 µM) 90.9% | viability, T/C (second compound 1 µM, first compound 0.1 µM) 78.4% | viability, T/C (second compound 1 µM, first compound 0.316 µM) 86.8% | viability, T/C (second compound 1 µM, first compound 1 µM) 77.7% | viability, T/C (second compound 1 µM, first compound 3.16 µM) 63.2% | viability, T/C (second compound 1 µM, first compound 10 µM) 39.5% | viability, T/C (second compound 3.16 µM, first compound 0.0316 µM) 55.2% | viability, T/C (second compound 3.16 µM, first compound 0.1 µM) 55.5% | viability, T/C (second compound 3.16 µM, first compound 0.316 µM) 48.2% | viability, T/C (second compound 3.16 µM, first compound 1 µM) 53.3% | viability, T/C (second compound 3.16 µM, first compound 3.16 µM) 42.6% | viability, T/C (second compound 3.16 µM, first compound 10 µM) 32.4% | viability, T/C (second compound 10 µM, first compound 0.0316 µM) 18.1% | viability, T/C (second compound 10 µM, first compound 0.1 µM) 15.5% | viability, T/C (second compound 10 µM, first compound 0.316 µM) 16.1% | viability, T/C (second compound 10 µM, first compound 1 µM) 13.2% | viability, T/C (second compound 10 µM, first compound 3.16 µM) 11.3%
8.02 µM: IC50 (second compound 0.316 µM)

CCN(c1cc(-c2ccc(CN3CCOCC3)cc2)cc(C(=O)NCc2c(C)cc(C)[nH]c2=O)c1C)C1CCOCC1 + Cc1ccccc1N=Nc1ccc(NC(=O)c2ccnn2C)c(C)c1
inactive: viability, T/C (second compound 0.1 µM, first compound 0.00949 µM) 116% | viability, T/C (second compound 0.1 µM, first compound 0.03 µM) 111% | viability, T/C (second compound 0.1 µM, first compound 0.0949 µM) 104% | viability, T/C (second compound 0.1 µM, first compound 0.3 µM) 80.5% | viability, T/C (second compound 0.1 µM, first compound 0.949 µM) 78.8% | viability, T/C (second compound 0.1 µM, first compound 3 µM) 79% | viability, T/C (second compound 0.316 µM, first compound 0.00949 µM) 117% | viability, T/C (second compound 0.316 µM, first compound 0.03 µM) 110% | viability, T/C (second compound 0.316 µM, first compound 0.0949 µM) 94.5% | viability, T/C (second compound 0.316 µM, first compound 0.3 µM) 89.8% | viability, T/C (second compound 0.316 µM, first compound 0.949 µM) 80.8% | viability, T/C (second compound 0.316 µM, first compound 3 µM) 68.5% | viability, T/C (second compound 1 µM, first compound 0.00949 µM) 106% | viability, T/C (second compound 1 µM, first compound 0.03 µM) 108% | viability, T/C (second compound 1 µM, first compound 0.0949 µM) 108% | viability, T/C (second compound 1 µM, first compound 0.3 µM) 87.2% | viability, T/C (second compound 1 µM, first compound 0.949 µM) 71% | viability, T/C (second compound 1 µM, first compound 3 µM) 65.7% | viability, T/C (second compound 3.16 µM, first compound 0.00949 µM) 98.6% | viability, T/C (second compound 3.16 µM, first compound 0.03 µM) 95.5% | viability, T/C (second compound 3.16 µM, first compound 0.0949 µM) 78.8% | viability, T/C (second compound 3.16 µM, first compound 0.3 µM) 69.6% | viability, T/C (second compound 3.16 µM, first compound 0.949 µM) 57.8% | viability, T/C (second compound 3.16 µM, first compound 3 µM) 60.1% | viability, T/C (second compound 10 µM, first compound 0.00949 µM) 49.1% | viability, T/C (second compound 10 µM, first compound 0.03 µM) 62.3% | viability, T/C (second compound 10 µM, first compound 0.0949 µM) 47.9% | viability, T/C (second compound 10 µM, first compound 0.3 µM) 45.8% | viability, T/C (second compound 10 µM, first compound 0.949 µM) 43.3% | viability, T/C (second compound 10 µM, first compound 3 µM) 40.6%
0.114 µM: IC50 (second compound 10 µM)
> 3 µM: IC50 (second compound 0.1 µM) | IC50 (second compound 0.316 µM) | IC50 (second compound 1 µM) | IC50 (second compound 3.16 µM)
